From US11357766B2, “Compositions and methods for treating cancer” (Texas Tech University System, priority 2017, dated 2022)

Test system: subcutaneously implanted BxPC3 tumors
Assay: Pancreatic tumor xenograft model
Assay type: in vivo
Conditions: 10 mg/kg oral gavage everyday
Procedure: Briefly, In FIG. 4A 1×10^6 BxPC3 cells in 1:1 mixture of PBS and matrigel were subcutaneously implanted in the right flank of 4-6 week old female athymic nude mice (n=5). […] The treatment was given till day 40. Values are plotted as mean±SEM. FIG. 4B orthotopic tumors were aseptically removed and the tumor size was compared between control and pimavanserin treated group. In FIG. 4C mice weight was recorded once in 10 days. The average weight of the mice is plotted against days. Values are plotted as mean±SEM.
Pancreatic tumor xenograft model. Female athymic nude mice (4-6 week old) were purchased from Harlan Laboratory (Livermore, Calif.). All the experiments were performed under the strict compliance and regulations approved from Institutional Animal Care and Use Committee (IACUC), Texas Tech University Health Sciences Center, Amarillo, Tex. 1×10^6 BxPC3 cells were implanted in right flank of the mice. […] Group I was assigned as control group, which received the vehicle only (PBS). Group II mice received 10 mg/kg Pimavanserin tartrate by oral gavage everyday. Treatment with Pimavanserin was started at day 13. Tumor growth was monitored by measuring the tumor volume twice a week until day 40 using a Vernier caliper as described by the present inventors (11). The study was terminated at day 40 due to tumor burden. The mice were euthanized and the tumors were aseptically removed. A part of tumor was snap frozen for western blotting and the other part was fixed in formalin for immunohistochemistry and TUNEL analysis. Mice weight was monitored once in ten days.
Pimavanserin suppresses the growth of subcutaneously implanted pancreatic tumors. To examine the in-vivo efficacy of pimavanserin and to establish the mechanism of tumor growth inhibition in pancreatic cancer, BxPC3 cells were implanted subcutaneously in female athymic nude mice. Once the tumor volume reached 70 mm^3 in size, experimental group of mice were treated with 10 mg/kg pimavanserin by oral gavage everyday. […]

SMILES: CC(C)COc1ccc(CNC(=O)N(Cc2ccc(F)cc2)C2CCN(C)CC2)cc1 [pimavanserin, N-(4-fluorophenylmethyl)-N-(1-methylpiperidin-4-yl)-N′-(4-(2-methylpropyloxy)phenylmethyl)carbamide]
- average tumor volume at the day of sacrifice (day 40, control group 873.395 mm3): 429.01 mm3
- overall weight of mice vs control (general signs of toxicity) (throughout the study): similar
- suppression of growth of BxPC3 tumors (vs control): 50%
